Measurements as given in US11964980B2, “Crystalline forms of (S)-1-(4-fluorophenyl)-1-(2-(4-(6-(1-methyl-1H-pyrazol-4-yl)pyrrolo[2,1- f][1,2,4]triazin-4-yl)piperazinyl)-pyrimidin-5-yl)ethan-1-amine and methods of making” (Blueprint Medicines Corporation, priority 2019, dated 2024).
“Also recorded” adds a separate entry of the source.

Key:
[1] = system: patients with indolent systemic mastocytosis; experiment: Phase 2 PIONEER trial Part 1: ISM-SAF symptom scores and MC-QoL; format: in vivo, human
Procedure: This is a Phase 2, randomized, double-blind, placebo-controlled study comparing the efficacy and safety of Compound (I)+best supportive care (BSC) with placebo+BSC in patients with ISM and SSM whose symptoms are not adequately controlled by BSC. The study is conducted in three parts. In Part 1, the optimal dose Compound (I) (recommended phase 2 dose (RP2D)) was identified in patients with ISM. In Part 2, patients with ISM and SSM are randomly assigned to the RP2D of Compound (I) identified in Part 1+BSC, or to matching placebo+BSC. In Part 3, patients who have completed treatment in Part 1 or Part 2 of the study participate in a long-term extension, receiving Compound (I) at the RP2D+BSC.
In Part 1, immediately after informed consent was obtained, management of SM symptoms was optimized, and BSC medication doses and schedules for SM symptom management were stabilized, if needed, over four weeks. Within five days after informed consent is obtained, ISM-SAF (ISM Symptom Assessment Form) data collection begins. The number of anaphylactic episodes treated with epinephrine and all concomitant medications received for any indication were collected from the time of informed consent.
Once BSC was optimized (between Day −98 and Day −71) and doses were stable for ≥14 days, ISM-SAF data was collected for an additional 14 days to determine eligibility based on symptom severity i.e., to identify ISM and SSM patients having moderate-to-severe symptoms. Patients not meeting the symptom severity threshold were deemed screen failures and were not eligible for study participation. Patients having moderate-to-severe symptoms and meeting the threshold for symptom severity began other screening procedures, including the following: Bone marrow (BM) biopsy (an archival sample obtained within the preceding 24 weeks or a fresh sample) and skin biopsy of lesional and nonlesional skin (in patients with cutaneous mastocytosis (CM)) were performed for confirmation of SM diagnosis and quantification of mast cells (MCs); patients with CM (maculopapular) had skin photographs taken. Additional procedures include: magnetic resonance imaging/computed tomography scan of the brain; bone densitometry; serum tryptase, KIT D816 mutation testing; routine laboratory testing; ECG; and physical examination. All procedures are completed within a 6-week period before the final 14-day collection of baseline ISM-SAF symptoms is initiated.
Once screening procedures were completed, patients had ISM-SAF data collected for another 2 weeks (14 days) to establish baseline scores, after which patients meeting all eligibility requirements were randomly assigned to treatment and began dosing.
In Part 1 of the study, approximately 40 patients were randomly assigned to 1 of 3 doses of Compound (I) or to placebo. Each dose-level cohort and placebo group in Part 1 was composed of 10 patients. The 3 dose levels of Compound (I) were tested in parallel: 25, 50, and 100 mg. Patients, study staff, and the Sponsor were blinded to treatment assignment.
Compound (I) was administered orally, once a day in continuous 28-day cycles. Patients were assessed weekly for the first 4 weeks, then every 4 weeks (until the RP2D was determined) for safety, laboratory monitoring, and quality of life (QoL) assessments. Intensive pharmacokinetic (PK) sampling was performed in all patients. The ISM-SAF was completed once a day. After completion of 12 weeks of treatment, BM and skin biopsy were repeated for MC quantification and skin photographs were taken in patients with baseline CM.
The RP2D was determined based on the efficacy, safety, and PK at each dose level. The primary evaluation of efficacy was the symptom improvement using the ISM-SAF. The primary criterion for selection of the RP2D was the dose of Compound (I) that produces the maximum reduction in total symptom score (TSS), as assessed using the ISM-SAF at Week 12 compared with Baseline (Day −14 to Day −1). […]

[2] = system: patients with unresectable GIST; experiment: Phase 1 dose escalation and expansion study in advanced GIST: safety; format: in vivo
Procedure: Patients: Eligibility criteria for the phase 1 dose escalation and expansion study included provision of written informed consent, age ≥18 years, Eastern Cooperative Oncology Group performance status ≤2, and adequate end-organ function. The dose escalation part of the trial was open to patients with refractory solid tumors or unresectable GIST; however, only GIST patients were enrolled.
Part 1 followed a 3+3 dose-escalation design, starting at 30 mg and continuing until the maximum tolerated dose (MTD) or the recommended phase 2 dose (RP2D) below the MTD was determined. Intrapatient dose escalation was permitted, and additional accrual was allowed to dose levels previously determined tolerable. The part 1 MTD was used to initiate the part 2 expansion.
All patients underwent tumor imaging for response assessment via computed tomography (CT) or magnetic resonance imaging (MRI) at screening, every two cycles through and including cycle 13, then every three months until progression or discontinuation. Target and non-target lesions were identified and assessed per mRECIST 1.1 for GIST by independent, blinded, central radiographic review (BioTelemetry, Inc., Rockville, MD, USA). […]

[3] = system: tyrosine kinase inhibitor (TKI)-resistant mastocytoma model; experiment: TKI-resistant mastocytoma model in vivo

Q: Which “Mean percent change in ISM-SAF TSS” value ([1]; 25 mg QD (n = 9), at 16 weeks) does the source give for `Cn1cc(-c2cc3c(N4CCN(c5ncc([C@@](C)(N)c6ccc(F)cc6)cn5)CC4)ncnn3c2)cn1` [Compound (I), (S)-1-(4-fluorophenyl)-1-(2-(4-(6-(1-methyl-1H-pyrazol-4-yl)pyrrolo[2,1-f][1,2,4]triazin-4-yl)piperazin-1-yl)pyrimidin-5-yl)ethan-1-amine] here?
A: −31%

Q: What about the “Mean percent change in ISM-SAF gastrointestinal domain” value ([1]; 25 mg QD (n = 9), at 16 weeks) of the same compound?
A: −25%

Q: And the “Mean percent change in ISM-SAF neurological symptoms” value ([1]; 25 mg QD (n = 9), at 16 weeks)?
A: −26%

Q: And the “Mean percent change in ISM-SAF skin domain” value ([1]; 25 mg QD (n = 9), at 16 weeks)?
A: −37%

Q: And the “Mean reduction in total MC-QoL score” value ([1]; 25 mg QD (seven patients), 16 weeks)?
A: 34%

Q: And the “Mean reduction in total symptom score (TSS), ISM-SAF” value ([1]; 25 mg QD, baseline to 16 weeks)?
A: 31%

Q: What about the “Quality of life, MC-QoL overall score and domain scores” value ([1]; 25 mg QD, week 16) of the same compound?
A: improvements in quality of life; also recorded: improvements in all four domains

Q: And the “Reduction in ISM-SAF TSS and each symptom in the total domain score” value ([1]; 25 mg once daily, 16 weeks)?
A: statistically significant reduction

Q: What about the “Mean improvement in ISM-SAF TSS” value ([1]; across all Compound (I) dose cohorts, 16 weeks, p=0.001 vs placebo) of the same compound?
A: approximately 30%

Q: And the “Decreased appetite, Grade 1/2 event” value ([2]; 300 mg dose)?
A: 38%

Q: What about the “Diarrhea, Grade 1/2 event” value ([2]; 300 mg dose) of the same compound?
A: 41%

Q: What about the “Fatigue, Grade 1/2 event” value ([2]; 300 mg dose) of the same compound?
A: 38%

Q: And the “Nausea, Grade 1/2 event” value ([2]; 300 mg dose)?
A: 69%

Q: And the “Patients with cycle 1 dose-limiting toxicities” value ([2]; 600 mg once daily, Part 1)?
A: Two

Q: And the “Patients requiring at least one dose reduction or treatment interruption” value ([2]; 69 patients)?
A: 84%

Q: What about the “Discontinuation for adverse events considered related to Compound (I)” value ([2]; 82 patients enrolled) of the same compound?
A: 12%

Q: And the “Reason for treatment discontinuation: adverse events” value ([2]; 82 patients enrolled)?
A: 34%

Q: And the “Reason for treatment discontinuation: disease progression” value ([2]; 82 patients enrolled)?
A: 59%

Q: And the Treatment-related deaths ([2]; 82 patients enrolled)?
A: no treatment-related deaths

Q: What about the “Patients who discontinued treatment” value ([2]; 82 patients enrolled (44 patients)) of the same compound?
A: 54%

Q: And the “Fatigue, most common event” value ([2]; 400-mg dose)?
A: 47%

Q: What about the “Nausea, most common event” value ([2]; 400-mg dose) of the same compound?
A: 71%

Q: What about the “Periorbital edema, most common event” value ([2]; 400-mg dose) of the same compound?
A: 47%

Q: What about the “Vomiting, most common event” value ([2]; 400-mg dose) of the same compound?
A: 47%

Q: What about the “Discontinuation for adverse events considered related to Compound (I)” value ([2]; PDGFRA D842V population) of the same compound?
A: 14%

Q: What about the “Reason for treatment discontinuation: adverse events” value ([2]; PDGFRA D842V population) of the same compound?
A: 63%

Q: And the “Reason for treatment discontinuation: disease progression” value ([2]; PDGFRA D842V population)?
A: 21%

Q: What about the “Patients who discontinued treatment” value ([2]; PDGFRA D842V population (19/56)) of the same compound?
A: 34%

Q: And the “Events resulting in treatment discontinuation, patients” value ([2]; as printed after the 300 mg Grade 1/2 events (2 patients))?
A: 2%

Q: And the “Events primarily Grade 1, patients” value ([2]; as printed after the 300 mg Grade 1/2 events (19 patients))?
A: 23%

Q: What about the Intracranial hemorrhage ([2]; both events Grade 3, non-fatal) of the same compound?
A: 2 patients

Q: And the “Cycle-1 dose limiting toxicity” value ([2]; doses of 30 to 400 mg per day, Part 1)?
A: No cycle-1 dose limiting toxicity

Q: And the Maximum tolerated dose ([2]; once daily, oral)?
A: 400 mg

Q: And the “Recommended phase 2 dose” value ([2]; once daily, oral, GIST)?
A: 300 mg

Q: And the “Anemia, Grade 3/4 event” value ([2]; regardless of dose)?
A: 30%

Q: What about the “Grade 3/4 events, patients” value ([2]; regardless of dose (47 patients)) of the same compound?
A: 57%

Q: And the “Grade of most treatment-related adverse events” value ([2]; safety population)?
A: grade 1 or 2

Q: What about the Encephalopathy ([2]; safety population (2 patients)) of the same compound?
A: 2%

Q: And the Confusional state ([2]; safety population (7 patients))?
A: 9%

Q: What about the Cognitive disorder ([2]; safety population (8 patients)) of the same compound?
A: 10%

Q: And the “Cognitive effects, patients” value ([2]; safety population (33 patients))?
A: 40%

Q: And the Memory impairment ([2]; safety population (n=25))?
A: 30%

Q: What about the “Growth inhibition in TKI-resistant mastocytoma model” value [3] of the same compound?
A: robust growth inhibition
